ChEMBL document CHEMBL5214888, “The new opportunities in medicinal chemistry of fourth-generation EGFR inhibitors to overcome C797S mutation” (Eur J Med Chem, 2021)
pIC50: −log10 of the molar value. Values belong to the molecule of their own block, whether it stands above or below them.

What was measured:
[1] = target: T1, Epidermal growth factor receptor (Homo sapiens, UniProt P00533, C797S/EX19DEL/T790M); assay: Inhibition of human EGFR del19/T790M/C797S mutant assessed as enzyme remaining activity using poly-Glu-Tyr peptide substrate incubated for 2 hrs in presence of [gamma-33P]ATP by radiometric kinase assay
[2] = target: T2, Epidermal growth factor receptor (Homo sapiens, UniProt P00533, C797S/L858R/T790M); assay: Inhibition of EGFR L858R/T790M/C797S mutant (unknown origin)
BaF3 [3] = assay: Cytotoxicity against mouse BaF3 cells expressing human EGFR C797S/del19 mutant assessed as inhibition of in cell viability measured after 72 hrs by CellTiter-Glo assay; assay type: functional, cell-based; conditions: BaF3, 72 h
BaF3 [4] = assay: Cytotoxicity against mouse BaF3 cells expressing human EGFR C797S/T790M/del19 mutant assessed as inhibition of in cell viability measured after 72 hrs by CellTiter-Glo assay; assay type: functional, cell-based; conditions: BaF3, 72 h
PC-9 [5] = assay: Antiproliferative activity against human PC-9 cells harboring EGFR del19/T790M/C797S mutant assessed as inhibition of cell proliferation; assay type: functional, cell-based
PC-9 [6] = assay: Antiproliferative activity against human PC-9 cells harboring EGFR L858R/T790M/C797S mutant assessed as inhibition of cell proliferation; assay type: functional, cell-based
A549 = assay: Antiproliferative activity against human A549 assessed as inhibition of cell proliferation; assay type: functional, cell-based
PC-9 [7] = assay: Antiproliferative activity against human PC-9 cells assessed as inhibition of cell proliferation; assay type: functional, cell-based
[8] = Cmax in C57Bl/6 mouse plasma at 20 mg/kg, po and measured upto 8 hrs by LC-MS/MS analysis; assay type: ADME, organism-based; parameters: dose 20 mg/kg, time < 8 hrs, route po
[9] = AUClast in C57Bl/6 mouse at 3 mg/kg, iv and measured upto 8 hrs by LC-MS/MS analysis; assay type: ADME, organism-based; parameters: dose 3 mg/kg, time < 8 hrs, route iv; conditions: in vivo
[10] = Oral bioavailability in C57Bl/6 mouse plasma at 20 mg/kg and measured upto 8 hrs by LC-MS/MS analysis; assay type: ADME, organism-based
[11] = Half life in C57Bl/6 mouse at 3 mg/kg, iv and measured upto 8 hrs by LC-MS/MS analysis; assay type: ADME, organism-based; conditions: in vivo
[12] = target: T1, Epidermal growth factor receptor; assay: Inhibition of human EGFR del19/T790M/C797S mutant using ATP-labelled peptide substrate by HTRF assay
BaF3 [13] = assay: cells; conditions: Mus musculus, BaF3, 72 h
[14] = target: T1, Epidermal growth factor receptor; assay: Inhibition of EGFR del19/T790M/C797S triple mutant (unknown origin) phosphorylation expressed in mouse BaF3 cells by fluorescence based microplate reader analysis; assay type: cell-based
BaF3 [15] = assay: Antiproliferative activity against mouse BaF3 cells harboring EGFR del19/T790M/C797S triple mutant assessed as inhibition of cell proliferation by celltiter-Glo assay; assay type: functional, cell-based
[16] = target: T3, Epidermal growth factor receptor (Homo sapiens, UniProt P00533, L858R/T790M); assay: Inhibition of human GST-tagged EGFR L858R/T790M mutant expressed in Sf9 cells assessed as substrate phosphorylation using TK-peptide as substrate incubated for 20 mins by HTRF assay
[17] = target: T4, Epidermal growth factor receptor (Homo sapiens, UniProt P00533); assay: Inhibition of human wild type GST-tagged EGFR expressed in Sf9 cells assessed as substrate phosphorylation using TK-peptide as substrate incubated for 25 mins by HTRF assay
[18] = target: T2, Epidermal growth factor receptor; assay: Inhibition of human GST-tagged EGFR L858R/T790M/C797S mutant expressed in Sf9 cells assessed as substrate phosphorylation using TK-peptide as substrate incubated for 10 mins by HTRF assay
[19] = target: T3, Epidermal growth factor receptor; assay: Inhibition of EGFR L858R/T790M mutant (unknown origin)
[20] = target: T4, Epidermal growth factor receptor; assay: Inhibition of wild type EGFR (unknown origin)
BaF3 [21] = assay: cells; conditions: Mus musculus
BaF3 [22] = assay: cells; conditions: Mus musculus; remark: listed apart in the source

T2 sequence (P00533 25-1210 T790M/C797S/L858R limits assumed): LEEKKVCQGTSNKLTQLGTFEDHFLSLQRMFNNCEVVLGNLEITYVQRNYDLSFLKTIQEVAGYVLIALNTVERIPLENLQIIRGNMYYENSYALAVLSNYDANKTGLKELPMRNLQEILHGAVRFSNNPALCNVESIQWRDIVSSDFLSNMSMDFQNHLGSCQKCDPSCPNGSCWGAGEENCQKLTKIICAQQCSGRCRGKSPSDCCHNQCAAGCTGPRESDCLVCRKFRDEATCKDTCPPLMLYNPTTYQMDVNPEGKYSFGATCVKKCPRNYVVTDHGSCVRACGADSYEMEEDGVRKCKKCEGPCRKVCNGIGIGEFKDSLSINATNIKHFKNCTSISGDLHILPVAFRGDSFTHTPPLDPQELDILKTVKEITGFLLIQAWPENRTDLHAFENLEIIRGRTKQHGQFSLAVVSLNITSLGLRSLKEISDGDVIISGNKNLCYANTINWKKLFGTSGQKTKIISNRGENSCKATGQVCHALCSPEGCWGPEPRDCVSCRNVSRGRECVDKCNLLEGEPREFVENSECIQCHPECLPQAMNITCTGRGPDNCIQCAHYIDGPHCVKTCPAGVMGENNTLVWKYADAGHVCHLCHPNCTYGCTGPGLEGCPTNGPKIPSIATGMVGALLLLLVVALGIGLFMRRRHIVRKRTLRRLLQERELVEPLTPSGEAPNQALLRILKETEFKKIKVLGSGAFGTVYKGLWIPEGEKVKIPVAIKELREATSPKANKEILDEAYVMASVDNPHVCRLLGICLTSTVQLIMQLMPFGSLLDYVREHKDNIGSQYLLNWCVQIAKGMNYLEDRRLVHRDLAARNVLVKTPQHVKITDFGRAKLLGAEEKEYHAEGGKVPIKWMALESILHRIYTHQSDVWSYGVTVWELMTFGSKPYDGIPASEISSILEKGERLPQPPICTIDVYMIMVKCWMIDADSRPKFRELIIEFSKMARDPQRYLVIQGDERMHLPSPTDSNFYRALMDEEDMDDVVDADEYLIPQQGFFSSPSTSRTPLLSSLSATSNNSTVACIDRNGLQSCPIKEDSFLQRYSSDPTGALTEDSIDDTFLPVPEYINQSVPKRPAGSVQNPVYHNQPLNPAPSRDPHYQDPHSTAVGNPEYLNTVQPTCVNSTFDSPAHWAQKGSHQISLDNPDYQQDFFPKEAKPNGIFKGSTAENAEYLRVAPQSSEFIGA
T3 sequence (P00533 25-1210 T790M/L858R limits assumed): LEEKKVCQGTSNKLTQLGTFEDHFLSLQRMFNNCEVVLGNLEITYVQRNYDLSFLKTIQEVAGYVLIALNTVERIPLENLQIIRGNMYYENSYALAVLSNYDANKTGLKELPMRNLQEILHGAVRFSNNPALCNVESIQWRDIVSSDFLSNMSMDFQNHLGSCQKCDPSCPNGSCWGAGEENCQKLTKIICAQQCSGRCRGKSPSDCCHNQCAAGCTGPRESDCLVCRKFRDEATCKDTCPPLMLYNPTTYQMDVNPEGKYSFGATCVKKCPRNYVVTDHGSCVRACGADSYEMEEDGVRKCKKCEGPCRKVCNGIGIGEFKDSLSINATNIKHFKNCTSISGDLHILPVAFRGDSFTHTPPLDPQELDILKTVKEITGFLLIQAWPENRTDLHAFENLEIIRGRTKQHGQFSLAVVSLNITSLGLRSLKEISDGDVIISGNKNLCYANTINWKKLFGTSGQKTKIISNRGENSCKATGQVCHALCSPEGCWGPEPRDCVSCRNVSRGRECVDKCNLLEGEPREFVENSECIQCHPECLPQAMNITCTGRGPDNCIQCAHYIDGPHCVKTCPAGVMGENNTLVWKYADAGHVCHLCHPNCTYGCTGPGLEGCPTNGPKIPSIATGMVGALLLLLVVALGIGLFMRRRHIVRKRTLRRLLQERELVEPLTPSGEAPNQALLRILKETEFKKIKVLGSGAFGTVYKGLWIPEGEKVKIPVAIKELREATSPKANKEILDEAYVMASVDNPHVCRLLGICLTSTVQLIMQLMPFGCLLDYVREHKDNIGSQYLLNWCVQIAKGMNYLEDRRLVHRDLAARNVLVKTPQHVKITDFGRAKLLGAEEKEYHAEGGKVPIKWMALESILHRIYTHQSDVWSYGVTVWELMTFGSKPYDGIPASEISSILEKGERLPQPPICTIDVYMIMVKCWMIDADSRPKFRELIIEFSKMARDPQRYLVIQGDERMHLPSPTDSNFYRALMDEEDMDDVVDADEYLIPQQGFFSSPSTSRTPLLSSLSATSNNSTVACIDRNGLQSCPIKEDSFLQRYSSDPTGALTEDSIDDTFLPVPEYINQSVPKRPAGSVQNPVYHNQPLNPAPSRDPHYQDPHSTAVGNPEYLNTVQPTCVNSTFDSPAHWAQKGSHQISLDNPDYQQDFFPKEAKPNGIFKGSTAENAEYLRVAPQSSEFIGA
T1 sequence (P00533 whole entry, looked up, stated change not applied): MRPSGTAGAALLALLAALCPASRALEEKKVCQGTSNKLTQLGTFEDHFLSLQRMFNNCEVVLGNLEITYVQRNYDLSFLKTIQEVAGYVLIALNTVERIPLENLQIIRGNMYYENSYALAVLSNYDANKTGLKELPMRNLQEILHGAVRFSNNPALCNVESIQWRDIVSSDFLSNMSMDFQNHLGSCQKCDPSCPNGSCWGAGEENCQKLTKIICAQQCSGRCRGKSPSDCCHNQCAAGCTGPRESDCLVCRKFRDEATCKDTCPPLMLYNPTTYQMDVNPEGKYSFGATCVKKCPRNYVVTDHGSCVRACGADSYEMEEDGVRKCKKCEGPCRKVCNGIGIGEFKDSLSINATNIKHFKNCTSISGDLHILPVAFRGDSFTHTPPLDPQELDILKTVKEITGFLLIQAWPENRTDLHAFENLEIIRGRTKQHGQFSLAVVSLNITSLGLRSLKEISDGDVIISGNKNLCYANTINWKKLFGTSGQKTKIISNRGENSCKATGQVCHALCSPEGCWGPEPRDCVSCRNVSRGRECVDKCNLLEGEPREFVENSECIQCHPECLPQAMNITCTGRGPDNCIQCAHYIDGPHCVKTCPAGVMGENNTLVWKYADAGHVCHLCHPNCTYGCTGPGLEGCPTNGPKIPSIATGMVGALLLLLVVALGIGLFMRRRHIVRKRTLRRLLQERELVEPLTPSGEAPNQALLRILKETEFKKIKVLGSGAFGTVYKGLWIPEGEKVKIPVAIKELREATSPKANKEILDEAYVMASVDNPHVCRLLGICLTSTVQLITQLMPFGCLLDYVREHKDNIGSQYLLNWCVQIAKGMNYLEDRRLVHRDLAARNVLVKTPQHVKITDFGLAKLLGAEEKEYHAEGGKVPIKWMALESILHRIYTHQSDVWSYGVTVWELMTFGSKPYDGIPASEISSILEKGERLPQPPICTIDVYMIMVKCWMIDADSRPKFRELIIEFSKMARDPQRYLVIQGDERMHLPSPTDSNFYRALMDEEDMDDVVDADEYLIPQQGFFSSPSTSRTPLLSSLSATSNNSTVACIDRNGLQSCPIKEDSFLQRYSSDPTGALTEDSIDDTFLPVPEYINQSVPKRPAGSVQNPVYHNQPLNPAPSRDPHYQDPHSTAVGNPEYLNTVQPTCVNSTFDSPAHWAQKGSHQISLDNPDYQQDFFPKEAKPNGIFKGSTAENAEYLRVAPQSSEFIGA
T4 sequence (P00533 whole entry): as the sequence (P00533 whole entry, looked up, stated change not applied) above

SMILES: CSc1nc(-c2ccc(F)cc2)c(-c2ccnc(Nc3ccccc3)c2)[nH]1
pIC50 [2]: < 6.83

SMILES: COc1cc(N2CCC(N(C)C)CC2)ccc1Nc1ncc(Cl)c(Nc2ccccc2P(C)(C)=O)n1
pIC50 (BaF3 [3]): 7.55
pIC50 (BaF3 [4]): 7.23

SMILES: COc1cc(N2CCC(N)CC2)ccc1Nc1ncc(Cl)c(-c2c[nH]c3ccccc23)n1
pIC50 (BaF3 [3]): 7.13
pIC50 (BaF3 [4]): 6.88

SMILES: COC(=O)c1ccc(O)c(-c2nc(NCc3cccnc3)c3ccccc3n2)c1
pIC50 [1]: 7.34

SMILES: COc1ccc(-c2c3c4cc(OCCCN(C)C)c(OCCCN(C)C)cc4oc(=O)c3n3ccc4cc(O)c(OC)cc4c23)cc1O
pIC50 (PC-9 [5]): 6.13
pIC50 (PC-9 [6]): 6.22
pIC50 (A549): 5.54
pIC50 (PC-9 [7]): 6.18

SMILES: COc1cc(N2CCC(N3CCN(C)CC3)CC2)ccc1Nc1ncc(Cl)c(Nc2ccccc2NS(C)(=O)=O)n1
pIC50 [12]: 9.70

SMILES: O=C(Nc1nccs1)C(c1ccccc1)N1Cc2ccc(-c3ccc4[nH]ccc4c3)cc2C1=O (centres undefined)
pIC50 (BaF3 [13]): 6.05

SMILES: Cc1cc(Nc2ncc(Cl)c(Nc3ccccc3P(C)(C)=O)n2)ccc1N1CCC2(CC1)CN(C)C2
pIC50 [14]: > 7.00
pIC50 (BaF3 [15]): > 7.00

SMILES: Oc1ccc(-c2nc(-c3ccc(F)cc3)c(-c3ccnc4c3CC(c3ccccc3)N4)[nH]2)cc1 (centres undefined)
pIC50 [19]: 6.04
pIC50 [20]: 7.31

SMILES: CCC(=O)Nc1cccc(-c2c(-c3ccc(N4CCN(C)CC4)cc3)[nH]c3ncn(C4CCCCC4)c(=O)c23)c1
pIC50 [16]: 9.40
pIC50 [17]: 9.40
pIC50 [18]: 7.66

SMILES: OCCc1ccc(-c2nc(-c3ccc(F)cc3)c(-c3ccnc4c3CC(c3ccccc3)N4)[nH]2)cc1 (centres undefined)
pIC50 [2]: 8.12
pIC50 [19]: 7.90
pIC50 [20]: > 9.52

SMILES: C=C(C)c1cnc(Nc2ccc(N3CCC4(CCN(C)CC4)CC3)c(C)c2)nc1Nc1ccccc1P(C)(C)=O
pIC50 [14]: > 7.00
pIC50 (BaF3 [15]): > 7.00

SMILES: COc1cc(N2CCC(N3CCN(C)CC3)CC2)ccc1Nc1ncnc(Nc2ccccc2S(=O)(=O)C(C)C)n1 [ASP-3026]
pIC50 (BaF3 [3]): 6.49
pIC50 (BaF3 [4]): 5.82

SMILES: COc1cc(N2CCC(N3CCN(C)CC3)CC2)ccc1Nc1ncc(Cl)c(Nc2ccccc2P(C)(C)=O)n1 [BRIGATINIB]
pIC50 (BaF3 [3]): 7.40

SMILES: Cc1cc(Nc2ncc(Cl)c(Nc3ccccc3S(=O)(=O)C(C)C)n2)c(OC(C)C)cc1C1CCNCC1 [CERITINIB]
pIC50 (BaF3 [4]): 6.11

Next, values leading:

pIC50 [1]: 6.83
SMILES: Oc1ccccc1-c1nc(NCc2cccnc2)c2ccccc2n1

pIC50 [1]: 7.75
SMILES: N#Cc1ccc(O)c(-c2nc(NCc3cccnc3)c3ccccc3n2)c1

pIC50 [1]: 7.77
SMILES: N#Cc1ccc(O)c(-c2nc(NCc3cnccn3)c3ccccc3n2)c1

Cmax [8]: 1100 nM
AUC(0-t) at 8 h [9]: 12100 ng·h/mL
bioavailability [10]: 3%
half-life [11]: 3 h
SMILES: O=C(Nc1nccs1)C(c1cc(F)ccc1O)N1Cc2ccc(-c3ccc(N4CCNCC4)cc3)cc2C1=O (centres undefined)

pIC50 [12]: 9.10
SMILES: COc1cc(N2CCC(N3CCN(CCO)CC3)CC2)ccc1Nc1ncc(Cl)c(Nc2ccccc2NS(C)(=O)=O)n1

pIC50 [16]: > 10.00
pIC50 [17]: > 10.00
pIC50 [18]: 8.03
SMILES: CCCCOc1ncnc2[nH]c(-c3ccc(N4CCN(C)CC4)cc3)c(-c3cccc(NC(=O)CC)c3)c12

pIC50 [16]: 6.75
pIC50 [17]: 5.92
SMILES: CCC(=O)Nc1cccc(-c2c(-c3ccccc3)[nH]c3ncnc(OC)c23)c1

pIC50 [2]: 8.05
pIC50 [19]: 8.08
pIC50 [20]: > 9.52
SMILES: OCCCCc1ccc(-c2nc(-c3ccc(F)cc3)c(-c3ccnc4c3CC(c3ccccc3)N4)[nH]2)cc1 (centres undefined)

pIC50 [14]: > 7.00
pIC50 (BaF3 [15]): > 7.00
SMILES: CN1CCC2(CC1)CCN(c1ccc(Nc3ncc(Cl)c(Nc4ccccc4P(C)(C)=O)n3)cc1Br)CC2

pIC50 (BaF3 [21]): 6.54
pIC50 (BaF3 [22]): 6.50
SMILES: CC(=O)N[C@H]1CC[C@@H](N2C(=O)N(c3ccccc3Cl)Cc3cnc(Nc4ccc(N5CCN(C)CC5)c(C)c4)nc32)CC1

pIC50 [16]: > 10.00
pIC50 [17]: 9.70
pIC50 [18]: 8.07
SMILES: CCC(=O)Nc1cccc(-c2c(-c3ccc(N4CCN(C)CC4)cc3)[nH]c3ncnc(OCC(C)C)c23)c1

pIC50 [16]: 10.00
pIC50 [17]: 10.00
pIC50 [18]: 8.07
SMILES: CCC(=O)Nc1cccc(-c2c(-c3ccc(N4CCN(C)CC4)cc3)[nH]c3ncnc(OC(C)C)c23)c1
